In this experiment the target is T1, HAD4 (PfHAD4) (Plasmodium falciparum, UniProt Q8III4).
T1 construct: gene PF3D7_1118400
The experiment can be described thus: biochemical.

By IC50 is commonly meant the point on the concentration scale where inhibition reaches its midpoint. High values mean weaker potency in that assay, low ones greater potency in that assay.

T1 sequence (Q8III4 1-306): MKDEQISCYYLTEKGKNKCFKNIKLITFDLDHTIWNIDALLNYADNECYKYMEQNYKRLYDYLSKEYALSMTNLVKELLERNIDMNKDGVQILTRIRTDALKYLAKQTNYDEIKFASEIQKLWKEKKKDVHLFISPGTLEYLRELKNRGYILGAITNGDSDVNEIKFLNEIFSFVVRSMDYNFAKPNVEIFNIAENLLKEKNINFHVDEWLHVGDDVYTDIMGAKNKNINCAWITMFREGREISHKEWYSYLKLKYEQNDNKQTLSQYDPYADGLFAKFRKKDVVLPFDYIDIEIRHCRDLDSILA

As for `O=P(O)(O)O` [inorganic phosphate], half-maximal inhibition (IC50) was put at 2100 ± 210 µM.

Source of the values: paper PMC8022201, “Non‐canonical metabolic pathways in the malaria parasite detected by isotope‐tracing metabolomics” (Molecular Systems Biology, 2021).
